# Test results reported in patent US9011853B2, “B7-H4 fusion proteins and methods of use thereof” (Amplimmune, Inc., priority 2009, dated 2015).
# Where “and” joins values, the source holds several entries; their conditions need not be identical. Equal entries are not always repeated.
# Test system: serum levels of 58 analytes
# Assay: Serum biomarker analysis, quantitative immunoassay multi-analyte profiling (Rules-Based Medicine RodentMAP v2.9), AA#80
# Type: in vivo, mouse
# Description: In AA#80, serum samples were collected on Day 27, Day 34, Day 41 and Day 55 via the submandibular vein. Approximately 200 μL of blood per mouse was collected in Microtainer® serum separator tubes. Serum was removed following centrifugation and stored at <−65° C. until analysis.
# Selected serum samples were sent to Rules-Based Medicine (Austin, Tex.) for quantitative immunoassay multi-analyte profiling of serum samples, with the goal of identifying biomarkers that could be used to monitor disease progression and response to B7-H4-Ig treatment. Day 27, Day 34, and Day 41 sera from the three representative mice in the B7-H4-Ig group (tag #3332, 3334, and 3338) and three representative mice in the Synagis® group (tag #3324, 3329, and 3330) were analyzed for levels of 58 analytes using the RodentMAP v2.9 Testing Service.
# Data from the Rules-Based Medicine analysis was analyzed using Microsoft Excel and GraphPad Prism software. T-tests were performed to compare the levels of each analyte in the B7-H4-Ig versus Synagis® treated samples. No correction was made for multiple comparisons. Additionally, correlation coefficients were calculated for each analyte versus disease score.
substance,measurement,setting,value
Synagis®: humanized monoclonal IgG antibody against the F protein of Respiratory Syncytial Virus; used as a human IgG1 isotype control [reference compound],serum samples with undetectable GST-α levels,"all samples (Day 27, 34, 41)",7/9
same,serum samples with TNF-α levels above the limit of detection,"all samples (Day 27, 34, 41) (FIG. 16)",5/9
same,M-CSF (Macrophage-Colony Stimulating Factor),"serum, Day 34, LDD 0.01795, listed as Human LgG1 Control",6.46 ng/mL and 6.3 ng/mL and 6.09 ng/mL
same,MIP-1gamma (Macrophage Inflammatory Protein-1gamma),"serum, Day 34, LDD 0.0736, listed as Human LgG1 Control",42.2 ng/mL and 41 ng/mL and 40.9 ng/mL
same,TEMP-1 (Tissue Inhibitor of Metalicproteinase Type-1),"serum, Day 34, LDD 0.18, listed as Human LgG1 Control",1.7 ng/mL and 1.88 ng/mL and 1.31 ng/mL
same,IL-5 (Interleukin-5),"serum, Day 34, LDD 0.194, listed as Human LgG1 Control",0.333 ng/mL and 0.474 ng/mL
same,MIP-1alpha (Macrophage Inflammatory Protein-1alpha),"serum, Day 34, LDD 0.2255, listed as Human LgG1 Control",3.13 ng/mL and 2.88 ng/mL and 2.93 ng/mL
same,MIP-3beta (Macrophage Inflammatory Protein-3beta),"serum, Day 34, LDD 0.465, listed as Human LgG1 Control",2.63 ng/mL and 2.52 ng/mL and 2.67 ng/mL
same,Tissue Factor,"serum, Day 34, LDD 0.5175, listed as Human LgG1 Control",10.8 ng/mL and 10 ng/mL and 12.5 ng/mL
same,MPO (Myeloperoxidase),"serum, Day 34, LDD 0.95, listed as Human LgG1 Control",253 ng/mL and 254 ng/mL
same,SGOT (Serum Glutamic-Oxaloacetic Transaminase),"serum, Day 34, LDD 1.86, listed as Human LgG1 Control",75 µg/mL and 140 µg/mL and 81.9 µg/mL
same,TPO (Thromboproletin),"serum, Day 34, LDD 2.66, listed as Human LgG1 Control",36.1 ng/mL and 34.2 ng/mL and 39.8 ng/mL
same,SAP (Setrum Amtyloid P),"serum, Day 34, LDD 5.4, listed as Human LgG1 Control",38.4 µg/mL and 48.6 µg/mL and 38.3 µg/mL
same,MIP-2 (Macrophage Inflammatory Protein-2),"serum, Day 34, LDD 7.174, listed as Human LgG1 Control",27.2 pg/mL and 32.3 pg/mL and 33.6 pg/mL
same,MMP-9 (Matrix Metalloproteinase-9),"serum, Day 34, LDD 10, listed as Human LgG1 Control",207 ng/mL and 259 ng/mL and 283 ng/mL
same,MCP-1 (Monocyte Chemoattractant Protein-1),"serum, Day 34, LDD 16.924, listed as Human LgG1 Control",99.8 pg/mL and 78.3 pg/mL and 117 pg/mL
same,VCAM-1 (Vescular Cell Adhesion Molecule-1),"serum, Day 34, LDD 19, listed as Human LgG1 Control",2290 ng/mL and 2120 ng/mL and 2450 ng/mL
same,MDC (Macrophage-Derived Chemokine),"serum, Day 34, LDD 21.85, listed as Human LgG1 Control",1270 pg/mL and 1320 pg/mL and 1130 pg/mL
same,Myoglobin,"serum, Day 34, LDD 24, listed as Human LgG1 Control",10 ng/mL and 9.69 ng/mL and 12.7 ng/mL
same,MCP-3 (Monocyte Chemoattractant Protein-3),"serum, Day 34, LDD 31.36, listed as Human LgG1 Control",188 pg/mL and 180 pg/mL and 193 pg/mL
same,VEGF (Vescular Endotheial Cell Growth Factor),"serum, Day 34, LDD 38.2, listed as Human LgG1 Control",92.6 pg/mL and 128 pg/mL and 114 pg/mL
same,IP-10 (Inducible Protein-10),"serum, Day 34, LDD 40.28, listed as Human LgG1 Control",68.1 pg/mL and 52 pg/mL and 84.3 pg/mL
same,LIF (Leukemia Infabitory Factor),"serum, Day 34, LDD 43.6, listed as Human LgG1 Control",1620 pg/mL and 1430 pg/mL
same,MCP-5 (Monocyte Chemoattractant Protein-5),"serum, Day 34, LDD 46.38, listed as Human LgG1 Control",37.5 pg/mL and 46.2 pg/mL and 41 pg/mL
same,SCF (Stem Cell Factor),"serum, Day 34, LDD 75.17, listed as Human LgG1 Control",214 pg/mL and 182 pg/mL
same,Lymphotactin,"serum, Day 34, LDD 85.48, listed as Human LgG1 Control",219 pg/mL and 151 pg/mL and 205 pg/mL
same,VWF (Von Willebrand Factor),"serum, Day 34, LDD 98.6, listed as Human LgG1 Control",107 ng/mL and 92.4 ng/mL and 139 ng/mL
same,M-CSF (Macrophage-Colony Stimulating Factor),"serum, Day 41, LDD 0.01795, listed as Human LgG1 Control",6.38 ng/mL and 5.22 ng/mL and 6.37 ng/mL
same,MIP-1gamma (Macrophage Inflammatory Protein-1gamma),"serum, Day 41, LDD 0.0736, listed as Human LgG1 Control",45.4 ng/mL and 44.8 ng/mL
same,TEMP-1 (Tissue Inhibitor of Metalicproteinase Type-1),"serum, Day 41, LDD 0.18, listed as Human LgG1 Control",3.54 ng/mL and 3.21 ng/mL and 4.33 ng/mL
same,IL-5 (Interleukin-5),"serum, Day 41, LDD 0.194, listed as Human LgG1 Control",0.616 ng/mL and 0.368 ng/mL and 0.333 ng/mL
same,MIP-1alpha (Macrophage Inflammatory Protein-1alpha),"serum, Day 41, LDD 0.2255, listed as Human LgG1 Control",3.03 ng/mL and 3.13 ng/mL and 3.32 ng/mL
same,MIP-3beta (Macrophage Inflammatory Protein-3beta),"serum, Day 41, LDD 0.465, listed as Human LgG1 Control",3.27 ng/mL and 2.73 ng/mL and 2.35 ng/mL
same,Tissue Factor,"serum, Day 41, LDD 0.5175, listed as Human LgG1 Control",10.8 ng/mL and 9.17 ng/mL and 11.7 ng/mL
same,MPO (Myeloperoxidase),"serum, Day 41, LDD 0.95, listed as Human LgG1 Control",259 ng/mL and 263 ng/mL and 240 ng/mL
same,SGOT (Serum Glutamic-Oxaloacetic Transaminase),"serum, Day 41, LDD 1.86, listed as Human LgG1 Control",84 µg/mL and 93.9 µg/mL and 78.4 µg/mL
same,TPO (Thromboproletin),"serum, Day 41, LDD 2.66, listed as Human LgG1 Control",38 ng/mL and 39.8 ng/mL and 32.4 ng/mL
same,SAP (Setrum Amtyloid P),"serum, Day 41, LDD 5.4, listed as Human LgG1 Control",49.2 µg/mL and 46.2 µg/mL and 48.8 µg/mL
same,MIP-2 (Macrophage Inflammatory Protein-2),"serum, Day 41, LDD 7.174, listed as Human LgG1 Control",33.6 pg/mL and 50.3 pg/mL
same,IL-6 (Interleukin-6),"serum, Day 41, LDD 13.852, listed as Human LgG1 Control",74.2 pg/mL and 67.5 pg/mL and 93.7 pg/mL
same,MCP-1 (Monocyte Chemoattractant Protein-1),"serum, Day 41, LDD 16.924, listed as Human LgG1 Control",90.2 pg/mL and 129 pg/mL and 105 pg/mL
same,VCAM-1 (Vescular Cell Adhesion Molecule-1),"serum, Day 41, LDD 19, listed as Human LgG1 Control",2130 ng/mL and 1890 ng/mL and 1900 ng/mL
